Like-named read-outs stand apart in the source and are kept apart here.
Settings: hairless mouse skin, 35° C., mean and SD of three

- Average flux (steady-state flux of ropivacaine) (saturated in Glycerin): 1.2 ± 0.7 mcg/cm^2/h
- Average flux (steady-state flux of ropivacaine) (saturated in ISA (isostearic acid)): 11 ± 2 mcg/cm^2/h
- Average flux (steady-state flux of ropivacaine) (saturated in Mineral Oil): 8.9 ± 0.6 mcg/cm^2/h
- Average flux (steady-state flux of ropivacaine) (saturated in Span 20): 26 ± 8 mcg/cm^2/h
- Average flux (steady-state flux of ropivacaine) (saturated in Tween 20): 2.4 ± 0.1 mcg/cm^2/h
SMILES: CCCN1CCCC[C@H]1C(=O)Nc1c(C)cccc1C [Ropivacaine]

From patent publication US8907153B2, “Adhesive peel-forming formulations for dermal delivery of drugs and methods of using the same” (Nuvo Research Inc., priority 2004, dated 2014)
